This passage reports EC50, microsomal CLint and Activity results from ChEMBL document CHEMBL5365484, “Discovery and Characterization of Novel CNS-Penetrant GPR55 Agonists” (J Med Chem, 2023).

Calls of active or inactive are those of the source. The rule behind the calls is not given here.

In series [1] the target is G-protein coupled receptor 55 (Homo sapiens, UniProt Q9Y2T6). The series is described as follows: Agonist activity at human GPR55 expressed in human HEK293 cells assessed as effect on calcium flux incubated for 5 mins by FLIPR analysis. Format: functional, cell-based. For orientation: A change in cytosolic calcium serves as a functional read-out for many receptors and channels.

The nature of series [2]: Agonist activity at rat GPR55 expressed in human HEK293 cells assessed as effect on calcium flux incubated for 5 mins by FLIPR analysis. Particulars: HEK293, 5 min.
Series [3] in a line: Metabolic stability in rat liver microsomes assessed as intrinsic clearance at 1 uM preincubated for 60 mins followed by NADPH addition and measured after 60 mins by LC-MS/MS analysis. Format: ADME, Microsome. To be noted: time 120 min, read-out: CLH. (Liver microsomes are vesicles of endoplasmic reticulum, rich in cytochrome P450 enzymes.)
For a further series, the system named is Striatal neuron. The series is described as follows: Neurophysiological effect on Wistar rat Striatal neuron assessed as decrease in potential firing frequency at 1 uM and measured after 3 mins by Whole-cell patch clamp assay. Format: functional, cell-based. (In general: The patch-clamp technique gives a direct electrical read-out from membranes.)
A short description of series [4]: Toxicity in Wistar rat Striatal neuron assessed as cell viability at 1 uM. Format: cell-based.
The test system of the next series is Rattus norvegicus. Put plainly: Effect on haloperidol-induced […] activity in Sprague-Dawley rat model assessed as locomotor activity at 3 mg/kg, po and measured after 60 mins. The series is classed as functional, organism-based.

G-protein coupled receptor 55, sequence (Q9Y2T6 whole entry): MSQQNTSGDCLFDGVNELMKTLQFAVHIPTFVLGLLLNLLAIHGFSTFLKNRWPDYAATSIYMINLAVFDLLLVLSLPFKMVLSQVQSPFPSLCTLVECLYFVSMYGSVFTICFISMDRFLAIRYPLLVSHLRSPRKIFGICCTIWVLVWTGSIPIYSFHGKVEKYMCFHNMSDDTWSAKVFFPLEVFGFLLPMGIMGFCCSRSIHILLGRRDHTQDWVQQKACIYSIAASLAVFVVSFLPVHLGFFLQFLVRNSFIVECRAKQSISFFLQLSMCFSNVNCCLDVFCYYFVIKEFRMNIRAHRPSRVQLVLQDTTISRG

In general, EC50 refers to the midpoint of the concentration-response curve. As for `CCc1cncc(-c2cnc(N[C@H](C)c3ccc(F)cc3)cn2)c1`, the EC50 was found to be 3.01 nM in series [1] and 32.5 nM in series [2]. In addition, the microsomal CLint at 1 µM in series [3] stood at 78 µL/min/mg.
Regarding `Cc1cncc(-c2ccc(N[C@H](C)c3ccc(F)cc3)nc2)c1`, the microsomal CLint at 1 µM in series [3] came out at 234 µL/min/mg.
For `C[C@@H](Nc1ccc(-c2ccc3oc(=O)[nH]c3c2)cn1)c1ccc(F)cc1`, the EC50 in series [1] stood at 573 nM; in series [2], 2400 nM.
As to `C[C@@H](Nc1ccc(-c2ccc3oc(=O)n(C)c3c2)cn1)c1ccc(F)cc1`, the microsomal CLint at 1 µM in series [3] was 3.9 µL/min/mg.
As for `C[C@@H](Nc1ccc(-c2cncc(C3CC3)c2)cn1)c1ccc(F)cc1`, the concentration giving a half-maximal response (EC50) in series [1] is 13.8 nM; in series [2] it was 514 nM. In addition, the microsomal CLint at 1 µM in series [3] came to 10 µL/min/mg.
`C[C@@H](Nc1ccc(-c2cnn(C)c2)cn1)c1ccc(F)cc1`: the EC50 in series [1] was 427 nM; in series [2], 3510 nM.
Turning to `C[C@@H](Nc1ncc(-c2cncc(CC(F)(F)F)c2)nn1)c1ccc(F)cc1`, the microsomal CLint at 1 µM in series [3] came out at 6.4 µL/min/mg.
The same measure, in the same setting: then `C[C@@H](Nc1ccc(-c2cncc(S(C)(=N)=O)c2)cn1)c1ccc(F)cc1` (stereo not given in full), with 2 µL/min/mg.
Take `C[C@@H](Nc1cnc(-c2cncc(CC(F)F)c2)cn1)c1ccc(F)cc1`: in the series on Striatal neuron, the outcome was Active. Besides, the values for the EC50 in series [1] and in series [2] were 0.439 nM and 4.13 nM, respectively. Further, in series [4], the Activity entry was “Non-Toxic”. Also, in series [3], the microsomal CLint at 1 µM is 16 µL/min/mg.
Regarding `CCn1c(=O)c2c(nc(/C=C/c3ccc(OC)c(OC)c3)n2C)n(CC)c1=O`, the outcome in the series on Rattus norvegicus was Active.
On to `C[C@@H](Nc1ccc(-c2cncc(S(C)(=O)=O)c2)cn1)c1ccc(F)cc1`, for which the EC50 was 85.1 nM in series [1] and 716 nM in series [2]. Besides, the microsomal CLint at 1 µM in series [3] stood at 3.8 µL/min/mg.
Turning to `C[C@@H](Nc1ccc(-c2cncc(C(F)(F)F)c2)cn1)c1ccc(F)cc1`, the microsomal CLint at 1 µM in series [3] was 5.2 µL/min/mg.
On the same count and under the same terms, then `CCc1cncc(-c2ccc(N[C@H](C)c3ccc(F)cc3)nc2)c1`, with 48 µL/min/mg.
